Results reported in the Deep4Chem optical property database.
“And” between values parts separate entries of the source, which are not always exact repeats. Identical values can stand only once.

Experiment: photoluminescence quantum yield (fraction); solvent given as SMILES

Q: With `BrCCCCCCCCCCCCOc1cc2ccc3cccc4ccc(c1)c2c34` as the compound, how does the photoluminescence quantum yield (in Cc1ccccc1) read?
A: 0.59

Q: With `C=CC(=O)Oc1ccc2cc(C=C)c(=O)oc2c1` as the compound, how does the photoluminescence quantum yield (in CC#N) read?
A: 0.19

Q: For `c1cc2ccc3cc4[nH]c(-c5cc6c(cc7ccc8cccc9ccc6c7c89)[nH]5)cc4c4ccc(c1)c2c34`, which photoluminescence quantum yield (in C1CCOC1) is on record?
A: 0.5

Q: With `CC1(C)c2ccccc2-c2ccc(N3c4ccc(-c5ccc(/C=C6\C(=O)c7ccc(C(=O)O)cc7C6=O)s5)cc4C4CCCC43)cc21` (centres undefined) as the compound, how does the photoluminescence quantum yield (in ClC(Cl)Cl) read?
A: 0.18

Q: Which photoluminescence quantum yield (in ClC(Cl)Cl) does the source give for `O=Cc1ccc(C#CC(C#Cc2ccc(C=O)o2)=Cc2ccc(C=C(C#Cc3ccc(C=O)o3)C#Cc3ccc(C=O)o3)s2)o1` here?
A: 0.01

Q: For `Fc1ccc(C#Cc2nc(C#Cc3ccc(F)cc3)c(C#Cc3ccc(F)cc3)c(C#Cc3ccc(F)cc3)c2C#Cc2ccc(F)cc2)cc1`, which photoluminescence quantum yield (in ClCCl) is on record?
A: 0.47

Q: For `CC1=N/C(=C\c2ccc(C#N)c(N(C)C)c2)C(=O)N1C`, which photoluminescence quantum yield (in C1CCOC1) is on record?
A: 0.07

Q: And the photoluminescence quantum yield (in CC#N)?
A: 0.02

Q: And the photoluminescence quantum yield (in CCCCCC)?
A: 0.41

Q: Which photoluminescence quantum yield (in CCCCCC) does the source give for `CCCCc1ccc2ccc3c(CCCC)ccc4ccc1c2c43` here?
A: 0.47

Q: What about the photoluminescence quantum yield (in CO) of the same compound?
A: 0.6

Q: What about the photoluminescence quantum yield (in ClCCl) of the same compound?
A: 0.36

Q: With `c1ccc2c(c1)OP1(=NP(Oc3ccc4ccc5cccc6ccc3c4c56)(Oc3ccc4ccc5cccc6ccc3c4c56)=NP(Oc3ccc4ccc5cccc6ccc3c4c56)(Oc3ccc4ccc5cccc6ccc3c4c56)=N1)Oc1ccccc1-2` as the compound, how does the photoluminescence quantum yield (in ClCCl) read?
A: 0.89

Q: With `N#Cc1cccc(N2c3ccccc3C(c3ccccc3)(c3ccccc3)c3ccccc32)c1` as the compound, how does the photoluminescence quantum yield (in Cc1ccccc1) read?
A: 0.1

Q: Which photoluminescence quantum yield (in ClCCl) does the source give for `CN(C)c1ccc(/C=C/c2cnc(/C=C/c3ccc(C#N)cc3)o2)cc1` here?
A: 0.5

Q: Which photoluminescence quantum yield (in ClCCl) does the source give for `O=C1c2cccc3cc(C#CC#Cc4cc5c6c(cccc6c4)C(=O)N(c4ccccc4)C5=O)cc(c23)C(=O)N1c1ccccc1` here?
A: 0.79

Q: For `Cc1cc2c3ccccc3[nH]c2c2[nH]c3ccccc3c12`, which photoluminescence quantum yield (in ClCCl) is on record?
A: 0.075

Q: For `Cc1nnc(-c2cc(-n3c4ccccc4c4ccccc43)c(-n3c4ccccc4c4ccccc43)cc2-c2nnc(C)o2)o1`, which photoluminescence quantum yield (in Cc1ccccc1) is on record?
A: 0.287

Q: Which results are given for `CC(=O)n1cc(/C=C/c2ccc([N+](=O)[O-])cc2)c2ccccc21`?
A: photoluminescence quantum yield (in CC#N): 0.045; photoluminescence quantum yield (in CCCCCCC): 0.008; photoluminescence quantum yield (in CO): 0.002; photoluminescence quantum yield (in O): 0.003

Q: With `CCCC1(CCC)c2cc(-c3ccc(-c4ccc(OC)cc4)o3)ccc2-c2ccc(-c3ccc(-c4ccc(OC)cc4)o3)cc21` as the compound, how does the photoluminescence quantum yield (in C1CCCCC1) read?
A: 0.79

Q: What does the source list for `CCCN(c1ccccc1)c1ccc2c(c1)C(CC)(CC)c1cc(/C=C/c3ccc(/C=C(\C#N)C(=O)O)s3)ccc1-2`?
A: photoluminescence quantum yield (in C1CCOC1): 0.355; photoluminescence quantum yield (in C1COCCO1): 0.862; photoluminescence quantum yield (in CC#N): 0.229; photoluminescence quantum yield (in CC(C)=O): 0.486; photoluminescence quantum yield (in CCOC(C)=O): 0.584; photoluminescence quantum yield (in CN(C)C=O): 0.894; photoluminescence quantum yield (in CS(C)=O): 0.611; photoluminescence quantum yield (in ClCCl): 0.624

Q: For `CC1=CC(/C=C/c2ccc(OCCCN=[N+]=[N-])cc2)=[N+]2C1=C(c1ccc(N(C)C)cc1)c1c(C)cc(C)n1[B-]2(F)F`, which photoluminescence quantum yield (in CO) is on record?
A: 0.59

Q: With `CCN(CC)c1ccc2c(c1)oc(=O)c1cnc3c(cnn3-c3ccccc3)c12` as the compound, how does the photoluminescence quantum yield (in C1CCCCC1) read?
A: 0.926

Q: And the photoluminescence quantum yield (in CCOC(C)=O)?
A: 0.885

Q: What about the photoluminescence quantum yield (in CN(C)C=O) of the same compound?
A: 0.296

Q: And the photoluminescence quantum yield (in CO)?
A: 0.222

Q: And the photoluminescence quantum yield (in ClCCl)?
A: 0.916

Q: For `COc1cc2c(cc1OC)C1=C[C@H](c3ccc(Cl)cc3)C3(C(C#N)=C(C#N)N1CC2)c1cc(Cl)ccc1-c1ccc(Cl)cc13`, which photoluminescence quantum yield (in ClCCl) is on record?
A: 0.00065

Q: Which photoluminescence quantum yield (in CCOCC) does the source give for `CC1=CC(C)=[N+]2C1=C(c1ccccc1)c1c(C)cc(/C=C/c3ccc(N(C)C)cc3)n1[B-]2(F)F` here?
A: 0.83

Q: For `c1ccc2sc(-c3ccc(-c4nnc(-c5ccc(-c6nnc(-c7ccc(-c8cc9ccccc9s8)s7)o6)cc5)o4)s3)cc2c1`, which photoluminescence quantum yield (in ClC(Cl)Cl) is on record?
A: 0.61

Q: With `CC(C)(C)c1cc2c3cc(C(C)(C)C)c(-c4cc5cc6c7cccc8cccc(c9cc(C(C)(C)C)cc(c5cc4C(C)(C)C)c96)c87)cc3cc3c4cccc5cccc(c(c1)c23)c54` as the compound, how does the photoluminescence quantum yield (in CC1CCCCC1) read?
A: 0.64

Q: For `CC1=[N+]2C(=C(c3ccc(N4CCCCC4)cc3)c3ccc(C)n3[B-]2(F)F)C=C1`, which photoluminescence quantum yield (in C1CCCCC1) is on record?
A: 0.33

Q: And the photoluminescence quantum yield (in C1CCOC1)?
A: 0.01 and 0.008

Q: And the photoluminescence quantum yield (in CC#N)?
A: 0.003 and 0.002

Q: And the photoluminescence quantum yield (in CC(=O)C(C)(C)C)?
A: 0.004

Q: And the photoluminescence quantum yield (in CC(C)=O)?
A: 0.002

Q: What about the photoluminescence quantum yield (in CCCCCC) of the same compound?
A: 0.341

Q: And the photoluminescence quantum yield (in CCOC(C)=O)?
A: 0.006 and 0.005

Q: What about the photoluminescence quantum yield (in CO) of the same compound?
A: 0.005 and 0.003

Q: What about the photoluminescence quantum yield (in Cc1ccccc1) of the same compound?
A: 0.13

Q: And the photoluminescence quantum yield (in ClC(Cl)Cl)?
A: 0.077

Q: For `c1ccc(-c2nc(-c3ccc(N4c5ccccc5Sc5ccccc54)cc3)nn2-c2ccc(N3c4ccccc4Sc4ccccc43)cc2)nc1`, which photoluminescence quantum yield (in ClCCl) is on record?
A: 0.0129

Q: Which photoluminescence quantum yield (in CC#N) does the source give for `Cc1ccc(C#Cc2cc3ccccc3oc2=O)cc1` here?
A: 0.73

Q: What does the source list for `CCCCCCCCOc1ccc(C#Cc2ccc(C#Cc3ccc(OCCCCCCCC)c(OCCCCCCCC)c3)c3nc4c5ccccc5c5ccccc5c4nc23)cc1OCCCCCCCC`?
A: photoluminescence quantum yield (in C1CCOC1): 0.18; photoluminescence quantum yield (in Cc1ccccc1): 0.19; photoluminescence quantum yield (in ClCCl): 0.33

Q: What does the source list for `Cc1ccc(/C=C/c2ccccc2-[n+]2cc([O-])on2)cc1`?
A: photoluminescence quantum yield (in C1CCCCC1): 0.0007; photoluminescence quantum yield (in CC#N): 0.017

Q: With `COC(=O)CNC(=O)CCNc1cccc2ccccc12` as the compound, how does the photoluminescence quantum yield (in CCO) read?
A: 0.55
